Experimental data as given in patent US12673961B2 (Agios Pharmaceuticals, Inc., priority 2022, dated 2026).

biological target: T1, human PAH with the R408W mutation (Homo sapiens, UniProt P00439, R408W); assay: Cell Based Phenylalanine Flux Assay; details: A375 cells expressing human R408W PAH; 24 hrs compound incubation; 13C-Tyrosine by LC-MS; average where tested multiple times; read-out: AC50;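 also: Ten-point dose curve from 2-fold serial dilutions, run in duplicate at 0.5% DMSO final, tracer step used 20 µM sepiapterin and 800 µM labeled phenylalanine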
T1 construct: expressed in transfected cells
T1 sequence (P00439 1-452 R408W): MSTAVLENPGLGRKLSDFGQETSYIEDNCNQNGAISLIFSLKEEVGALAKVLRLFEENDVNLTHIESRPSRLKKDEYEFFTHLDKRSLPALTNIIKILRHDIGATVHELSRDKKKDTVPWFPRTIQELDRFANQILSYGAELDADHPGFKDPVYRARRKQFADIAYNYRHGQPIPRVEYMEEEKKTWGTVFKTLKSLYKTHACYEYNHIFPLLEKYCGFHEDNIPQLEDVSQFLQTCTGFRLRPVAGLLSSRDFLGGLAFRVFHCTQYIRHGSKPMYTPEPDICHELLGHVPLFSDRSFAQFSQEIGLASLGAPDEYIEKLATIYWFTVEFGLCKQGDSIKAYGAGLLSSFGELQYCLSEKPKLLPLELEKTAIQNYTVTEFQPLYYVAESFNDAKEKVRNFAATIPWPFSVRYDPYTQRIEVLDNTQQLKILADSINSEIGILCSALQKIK
Experimental: Compounds were resuspended in DMSO, and 2-fold serial dilutions were performed to generate a 10-point dose curve. Compounds were added to plated cells in a total volume of 100 μl, and a final DMSO concentration of 0.5%. Each compound was tested in duplicate. Following compound addition, cells were placed in a 5% CO2, 37° C. tissue culture incubator for 24 hrs. […] 20 μM sepiapterin and 800 μM 13C9,15N-Phenylalanine were added. After 4 hours, cell media was removed. An aliquot of 10 μl of cell media was combined with 200 μl of extraction buffer (80% acetonitrile/20% H2O) for each well. Determination of ^13C-Tyrosine concentration was assessed by liquid chromatography mass spectrometry.
Where a compound was tested multiple times, the average value of the tests is reported.

Row | Structure (SMILES) | AC50 [µM]
1 | C[C@@H](O)c1nc(C(F)F)c(C(=O)N2CCc3[nH]cnc3[C@@H]2c2cc3ccccn3n2)o1 [Example 691, (4-(difluoromethyl)-2-((R)-1-hydroxyethyl)oxazol-5-yl)((R)-4-(pyrazolo[1,5-a]pyridin-2-yl)-6,7-dihydro-1H-imidazo[4,5-c]pyridin-5(4H)-yl)methanone] | > 5
2 | CC(C)(C#N)c1nc(C(F)F)c(C(=O)N2CCc3[nH]cnc3[C@@H]2c2cc3ccccn3n2)o1 [Example 698, (R)-2-(4-(difluoromethyl)-5-(4-(pyrazolo[1,5-a]pyridin-2-yl)-4,5,6,7-tetrahydro-1H-imidazo[4,5-c]pyridine-5-carbonyl)oxazol-2-yl)-2-methylpropanenitrile] | 1 to 5
3 | C[C@@H](O)c1nc(C(F)F)c(C(=O)N2CCc3[nH]cnc3[C@@H]2c2cc3c(Cl)cccn3n2)o1 [Example 703, ((R)-4-(4-chloropyrazolo [1,5-a]pyridin-2-yl)-6,7-dihydro-1H-imidazo[4,5-c]pyridin-5(4H)-yl)(4-(difluoromethyl)-2-((R)-1-hydroxyethyl)oxazol-5-yl)methanone] | 1 to 5
4 | O=C(c1oc(C2(O)CC2)nc1C(F)F)N1CCc2[nH]cnc2[C@@H]1c1cc2c(Cl)cccn2n1 [Example 705, (R)-(4-(4-chloropyrazolo [1,5-a]pyridin-2-yl)-6,7-dihydro-1H-imidazo[4,5-c]pyridin-5(4H)-yl)(4-(difluoromethyl)-2-(1-hydroxycyclopropyl)oxazol-5-yl)methanone] | 1 to 5
5 | C[C@@H](O)c1nc(C(F)F)c(C(=O)N2CCc3[nH]cnc3[C@@H]2c2cc3c(F)cccn3n2)o1 [Example 711, (4-(difluoromethyl)-2-((R)-1-hydroxyethyl)oxazol-5-yl)((R)-4-(4-fluoropyrazolo [1,5-a]pyridin-2-yl)-6,7-dihydro-1H-imidazo[4,5-c]pyridin-5(4H)-yl)methanone] | > 5
6 | C[C@H](O)c1nc(C(F)F)c(C(=O)N2CCc3[nH]cnc3[C@H]2c2cc3c(F)cccn3n2)o1 [Example 712, (4-(difluoromethyl)-2-((S)-1-hydroxyethyl)oxazol-5-yl)((S)-4-(4-fluoropyrazolo [1,5-a]pyridin-2-yl)-6,7-dihydro-1H-imidazo[4,5-c]pyridin-5(4H)-yl)methanone] | < 0.5
7 | C[C@H](O)c1nc(C(F)F)c(C(=O)N2CCc3[nH]cnc3[C@@H]2c2cc3c(F)cccn3n2)o1 [Example 713, (4-(difluoromethyl)-2-((S)-1-hydroxyethyl)oxazol-5-yl)((R)-4-(4-fluoropyrazolo [1,5-a]pyridin-2-yl)-6,7-dihydro-1H-imidazo[4,5-c]pyridin-5(4H)-yl)methanone] | > 5
8 | Cn1cc(-c2nnc(C(=O)N3CCc4[nH]cnc4[C@@H]3c3cc4c(F)cccn4n3)o2)cn1 [Example 729, (R)-(4-(4-fluoropyrazolo[1,5-a]pyridin-2-yl)-6,7-dihydro-1H-imidazo[4,5-c]pyridin-5(4H)-yl)(5-(1-methyl-1H-pyrazol-4-yl)-1,3,4-oxadiazol-2-yl)methanone] | > 5
9 | Cn1ccc(-c2nnc(C(=O)N3CCc4[nH]cnc4[C@H]3c3cc4c(F)cccn4n3)o2)n1 [Example 730, (S)-(4-(4-fluoropyrazolo [1,5-a]pyridin-2-yl)-6,7-dihydro-1H-imidazo[4,5-c]pyridin-5(4H)-yl)(5-(1-methyl-1H-pyrazol-3-yl)-1,3,4-oxadiazol-2-yl)methanone] | < 0.5
10 | O=C(c1nnc(-c2ccccn2)o1)N1CCc2[nH]cnc2[C@@H]1c1cc2c(F)cccn2n1 [Example 732, (R)-(4-(4-fluoropyrazolo [1,5-a]pyridin-2-yl)-6,7-dihydro-1H-imidazo[4,5-c]pyridin-5(4H)-yl)(5-(pyridin-2-yl)-1,3,4-oxadiazol-2-yl)methanone] | > 5
11 | Cc1cccn2nc([C@H]3c4nc[nH]c4CCN3C(=O)c3nnc(-c4ccn(C)n4)o3)cc12 [Example 742, (R)-(5-(1-methyl-1H-pyrazol-3-yl)-1,3,4-oxadiazol-2-yl)(4-(4-methylpyrazolo[1,5-a]pyridin-2-yl)-6,7-dihydro-1H-imidazo [4,5-c]pyridin-5(4H)-yl)methanone] | > 5
12 | CC(C)(O)c1nc(C(F)(F)F)c(C(=O)N2CCc3[nH]cnc3[C@H]2c2cc3c(F)cccn3n2)o1 [Example 744, (S)-(4-(4-fluoropyrazolo[1,5-a]pyridin-2-yl)-6,7-dihydro-1H-imidazo[4,5-c]pyridin-5(4H)-yl)(2-(2-hydroxypropan-2-yl)-4-(trifluoromethyl)oxazol-5-yl)methanone] | < 0.5
13 | Cc1nc([C@H](C)O)oc1C(=O)N1CCc2[nH]cnc2[C@@H]1c1cc2c(C)cccn2n1 [Example 751, (2-((S)-1-hydroxyethyl)-4-methyloxazol-5-yl)((R)-4-(4-methylpyrazolo[1,5-a]pyridin-2-yl)-6,7-dihydro-1H-imidazo [4,5-c]pyridin-5(4H)-yl) methanone] | > 5
14 | Cc1nc(C(C)(C)O)oc1C(=O)N1CCc2[nH]cnc2[C@@H]1c1cc2c(C)cccn2n1 [Example 755, (R)-(2-(2-hydroxypropan-2-yl)-4-methyloxazol-5-yl)(4-(4-methylpyrazolo[1,5-a]pyridin-2-yl)-6,7-dihydro-1H-imidazo[4,5-c]pyridin-5(4H)-yl)methanone] | > 5
15 | Cc1cccn2nc([C@H]3c4nc[nH]c4CCN3C(=O)c3cnco3)cc12 [Example 769, (R)-(4-(4-methylpyrazolo [1,5-a]pyridin-2-yl)-6,7-dihydro-1H-imidazo[4,5-c]pyridin-5(4H)-yl)(oxazol-5-yl)methanone] | > 5
16 | COc1cccn2nc([C@H]3c4nc[nH]c4CCN3C(=O)c3nnc(-c4ccccn4)o3)cc12 [Example 778, (R)-(4-(4-methoxypyrazolo [1,5-a]pyridin-2-yl)-6,7-dihydro-1H-imidazo[4,5-c]pyridin-5(4H)-yl)(5-(pyridin-2-yl)-1,3,4-oxadiazol-2-yl)methanone] | > 5
17 | O=C(c1ccnn1C(F)F)N1CCc2[nH]cnc2[C@@H]1c1cc2c(Cl)cccn2n1 [Example 783, (R)-(4-(4-chloropyrazolo [1,5-a]pyridin-2-yl)-6,7-dihydro-1H-imidazo [4,5-c]pyridin-5(4H)-yl)(1-(difluoromethyl)-1H-pyrazol-5-yl)methanone] | 1 to 5
18 | Cc1c([C@H]2c3nc[nH]c3CCN2C(=O)c2oc(C(C)(C)O)nc2C(F)F)nn2ccccc12 [Example 787, (R)-(4-(difluoromethyl)-2-(2-hydroxypropan-2-yl)oxazol-5-yl)(4-(3-methylpyrazolo[1,5-a]pyridin-2-yl)-6,7-dihydro-1H-imidazo [4,5-c]pyridin-5(4H)-yl)methanone] | 1 to 5
19 | COc1ccc(-c2nnc(C(=O)N3CCc4[nH]cnc4[C@H]3c3cc4c(F)cccn4n3)o2)nc1 [Example 788, (S)-(4-(4-fluoropyrazolo[1,5-a]pyridin-2-yl)-6,7-dihydro-1H-imidazo[4,5-c]pyridin-5(4H)-yl)(5-(5-methoxypyridin-2-yl)-1,3,4-oxadiazol-2-yl)methanone] | < 0.5
20 | O=C(c1nnc(-c2ncccc2F)o1)N1CCc2[nH]cnc2[C@H]1c1cc2c(F)cccn2n1 [Example 791, (S)-(4-(4-fluoropyrazolo[1,5-a]pyridin-2-yl)-6,7-dihydro-1H-imidazo[4,5-c]pyridin-5(4H)-yl)(5-(3-fluoropyridin-2-yl)-1,3,4-oxadiazol-2-yl) methanone] | < 0.5
21 | O=C(c1nnc(-c2cnn(C(F)F)c2)o1)N1CCc2[nH]cnc2[C@@H]1c1cc2c(F)cccn2n1 [Example 797, (R)-(5-(1-(difluoromethyl)-1H-pyrazol-4-yl)-1,3,4-oxadiazol-2-yl)(4-(4-fluoropyrazolo[1,5-a]pyridin-2-yl)-6,7-dihydro-1H-imidazo[4,5-c]pyridin-5(4H)-yl)methanone] | > 5
22 | Cc1cccc2cc([C@H]3c4nc[nH]c4CCN3C(=O)c3nnc(-c4ccccn4)o3)nn12 [Example 799, (R)-(4-(7-methylpyrazolo [1,5-a]pyridin-2-yl)-6,7-dihydro-1H-imidazo[4,5-c]pyridin-5(4H)-yl)(5-(pyridin-2-yl)-1,3,4-oxadiazol-2-yl) methanone] | > 5
23 | Cc1cccc2cc([C@@H]3c4nc[nH]c4CCN3C(=O)c3nnc(-c4cnn(C)c4)o3)nn12 [Example 800, (S)-(5-(1-methyl-1H-pyrazol-4-yl)-1,3,4-oxadiazol-2-yl)(4-(7-methylpyrazolo[1,5-a]pyridin-2-yl)-6,7-dihydro-1H-imidazo[4,5-c]pyridin-5(4H)-yl)methanone] | 0.5 to 1
24 | Cc1cccc2cc([C@@H]3c4nc[nH]c4CCN3C(=O)c3nnc(-c4ccn(C)n4)o3)nn12 [Example 802, (S)-(5-(1-methyl-1H-pyrazol-3-yl)-1,3,4-oxadiazol-2-yl)(4-(7-methylpyrazolo[1,5-a]pyridin-2-yl)-6,7-dihydro-1H-imidazo[4,5-c]pyridin-5(4H)-yl)methanone] | < 0.5
25 | Cc1ccc2cc([C@@H]3c4nc[nH]c4CCN3C(=O)c3oc(C(C)(C)O)nc3C(F)F)nn2c1 [Example 804] | < 0.5
26 | Cc1cccn2nc([C@@H]3c4nc[nH]c4CCN3C(=O)c3nnc(-c4cn(C)cn4)o3)cc12 [Example 806, (S)-(5-(1-methyl-1H-imidazol-4-yl)-1,3,4-oxadiazol-2-yl)(4-(4-methylpyrazolo[1,5-a]pyridin-2-yl)-6,7-dihydro-1H-imidazo[4,5-c]pyridin-5(4H)-yl)methanone] | 0.5 to 1
